Data reported in ChEMBL document CHEMBL6078662, “Discovery of 3-(2-aminobenzo[d]thiazol-5-yl) benzamide derivatives as potent anticancer agents via ROR1 inhibition” (Bioorg Med Chem, 2025).

Experiments:
[1] = Cytotoxicity against human MRC5 cells assessed as inhibition of cell proliferation incubated for 72 hrs by MTT assay; assay type: toxicity, cell-based
PC-9 = test: Antiproliferative activity against human PC-9 cells assessed as inhibition of cell proliferation incubated for 72 hrs by MTT assay; assay type: functional, cell-based; conditions: PC-9, 72 h
[2] = Selectivity index, ratio of IC50 for cytotoxicity against human MRC5 cells assessed as inhibition of cell proliferation to IC50 for antiproliferative activity against human NCI-H1975 cells assessed as inhibition of cell proliferation; assay type: toxicity, cell-based; conditions: MRC5 cells and NCI-H1975 cells, read-out: Ratio IC50
NCI-H1975 = test: Antiproliferative activity against human NCI-H1975 cells assessed as inhibition of cell proliferation incubated for 72 hrs by MTT assay; assay type: functional, cell-based; conditions: NCI-H1975, 72 h
A549 = test: Antiproliferative activity against human A549 cells assessed as inhibition of cell proliferation incubated for 72 hrs by MTT assay; assay type: functional, cell-based; conditions: A549, 72 h

SMILES	IC50 at 72 h [1] [µM]	IC50 (PC-9) [µM]	selectivity ratio [2]	IC50 (NCI-H1975) [µM]	IC50 (A549) [µM]
CCCNC(=O)c1cccc(-c2ccc3sc(NC(=O)C(C)(C)C)nc3c2)c1	> 80	> 40	> 9.8	8.16	31.4
CC(C)(C)C(=O)Nc1nc2cc(-c3cccc(C(=O)NCC4CC4)c3)ccc2s1	> 80	21.8		> 40	27.6
CC(=O)Nc1nc2cc(-c3cccc(C(=O)NCc4ccc(F)cc4)c3)ccc2s1	> 80	> 40	> 8.56	9.35	> 40
CC(C)CCNC(=O)c1cccc(-c2ccc3sc(NC(=O)C(C)(C)C)nc3c2)c1	> 80	13.9	> 18.2	4.4	> 40
CCC(=O)Nc1nc2cc(-c3cccc(C(=O)NCC4CC4)c3)ccc2s1	> 80	> 40		> 40	> 40
CCCC(=O)Nc1nc2cc(-c3cccc(C(=O)NCCOC)c3)ccc2s1	> 80	> 40		> 40	> 40
COCOc1cc(OCOC)c2c(c1)O[C@@H](c1ccc(OC)cc1)CC2=O	> 80	10.4	> 13.2	6.06	> 40
O=C(NCC1CC1)c1cccc(-c2ccc3sc(NC(=O)c4ccc(F)cc4)nc3c2)c1	> 80	11.9		> 40	> 40
COCCNC(=O)c1cccc(-c2ccc3sc(NC(=O)C(C)(C)C)nc3c2)c1	> 80	> 40	> 7.23	11.1	> 40
CC(=O)Nc1nc2cc(-c3cccc(C(=O)NCC4CC4)c3)ccc2s1	> 80	> 40		> 40	> 40
